This is an account of results in PMC9268448, “Synthesis of 4,5-Dihydro-1H-[1,2]dithiolo[3,4-c]quinoline-1-thione Derivatives and Their Application as Protein Kinase Inhibitors” (Molecules, 2022).

One series deals with T1, NPM1-ALK (Homo sapiens, UniProt Q9UM73).
T1 construct: NPM1 (nucleophosmin, P06748) fusion partner
The series is described as follows: Kinase inhibition ELISA, NPM1-ALK. The format is biochemical. Conditions: 10 μM test compound, 150 μM ATP. Here is the method: (§1) Study of inhibitory activity. […] The enzymatic reaction was stopped with a buffer containing 20 mM HEPES (Sigma, H4034), pH 7.5, and 150 mM EDTA (Sigma, E5513). […] Incubation was carried out for 1 h at room temperature. […] After completion of each incubation step (60 min at room temperature (~20 °C) and continuous stirring), the plates were washed three times from unbound antibody molecules with a PBS solution with Tween-20 and 100 μL of substrate (3.3′,5.5′-tetramethylbenzidine (TMB) dihydrochloride, Sigma, T8768) prepared according to the manufacturer’s instructions. Before measuring the optical density, the reaction was stopped using 0.5 M Н2SO4. The optical density of the solution was determined at λ = 450 nm using a tablet spectrophotometer (TECAN Safire). The data obtained were processed and imported into the HTSCalc program.
(§2) The data were analyzed using GraphPad Prism software (v. 3.1).

In a further series the target is ALK (Homo sapiens, UniProt Q9UM73). The series can be described thus: Kinase inhibition ELISA, ALK. The series is classed as biochemical. Conditions: 10 μM test compound, 150 μM ATP. Here is the method:
(§3) Study of inhibitory activity. The kinase activity was determined by enzyme-linked immunosorbent assay (ELISA) in polypropylene plates (Costar, 3363) in reaction buffer (20 mM HEPES, pH 7.5, 15 mM MgCl2, 2 mM DTT, 0.2 mM Na3VO4, 0.005% Triton X-100) for 60 min at 30 °C with vigorous stirring. The final concentration of the reaction components: 0.05 μg mL^–1 of the corresponding kinase, 5 nM Histon H3 biotinylated substrate (1–21) (Anaspec, 61702), 150 μM ATP (Sigma, A6419), 10 μM test compound, 5% DMSO. The enzymatic reaction was stopped with a buffer containing 20 mM HEPES (Sigma, H4034), pH 7.5, and 150 mM EDTA (Sigma, E5513). Further, to detect the phosphorylated substrate, the reaction mixture was transferred to pre-prepared plates (Nunc, 468667) coated with neutravidin (1 ng per well; Pierce, 31000) and treated with bovine serum albumin (BSA) to block non-specific binding sites. Incubation was carried out for 1 h at room temperature. After washing the plates three times with phosphate buffer saline (PBS, pH 7.4) with Tween-20, they were incubated sequentially with anti-phospho-Histon H3 antibodies (0.3 ng μL^–1; Millipore, 04-746) and with specific antibodies conjugated with an enzyme-label (peroxidase) Anti-rabbit IgG, HRP-linked Antibody (titer 1/5000; Cell Signaling, 7074). After completion of each incubation step (60 min at room temperature (~20 °C) and continuous stirring), the plates were washed three times from unbound antibody molecules with a PBS solution with Tween-20 and 100 μL of substrate (3.3′,5.5′-tetramethylbenzidine (TMB) dihydrochloride, Sigma, T8768) prepared according to the manufacturer’s instructions. Before measuring the optical density, the reaction was stopped using 0.5 M Н2SO4. The optical density of the solution was determined at λ = 450 nm using a tablet spectrophotometer (TECAN Safire). The data obtained were processed and imported into the HTSCalc program.

Another series addresses EGFR[L858R][T790] (Homo sapiens, UniProt P00533, L858R/T790M). The series can be described thus: Kinase inhibition ELISA, EGFR[L858R][T790]. The format is biochemical. Conditions: 10 μM test compound, 150 μM ATP. How it is done: as §3
The target in the next series is cRAF[Y340D][Y341D] (Homo sapiens, UniProt P04049, Y340D/Y341D). The series can be described thus: Kinase inhibition ELISA, cRAF[Y340D][Y341D]. As to conditions: for inhibition at 10 µM: 10 μM test compound, 150 μM ATP. The series is classed as biochemical. How it is done: as §1, §2
In the next series the target is JAK2 (Homo sapiens, UniProt O60674). The series is described as follows: Kinase inhibition ELISA, JAK2. The series is classed as biochemical. As to conditions: 10 μM test compound, 150 μM ATP. Here is the method:
as §3

Another series has as its target T2, JAK3 (Homo sapiens, UniProt P52333).
T2 sequence (P52333 1-1124): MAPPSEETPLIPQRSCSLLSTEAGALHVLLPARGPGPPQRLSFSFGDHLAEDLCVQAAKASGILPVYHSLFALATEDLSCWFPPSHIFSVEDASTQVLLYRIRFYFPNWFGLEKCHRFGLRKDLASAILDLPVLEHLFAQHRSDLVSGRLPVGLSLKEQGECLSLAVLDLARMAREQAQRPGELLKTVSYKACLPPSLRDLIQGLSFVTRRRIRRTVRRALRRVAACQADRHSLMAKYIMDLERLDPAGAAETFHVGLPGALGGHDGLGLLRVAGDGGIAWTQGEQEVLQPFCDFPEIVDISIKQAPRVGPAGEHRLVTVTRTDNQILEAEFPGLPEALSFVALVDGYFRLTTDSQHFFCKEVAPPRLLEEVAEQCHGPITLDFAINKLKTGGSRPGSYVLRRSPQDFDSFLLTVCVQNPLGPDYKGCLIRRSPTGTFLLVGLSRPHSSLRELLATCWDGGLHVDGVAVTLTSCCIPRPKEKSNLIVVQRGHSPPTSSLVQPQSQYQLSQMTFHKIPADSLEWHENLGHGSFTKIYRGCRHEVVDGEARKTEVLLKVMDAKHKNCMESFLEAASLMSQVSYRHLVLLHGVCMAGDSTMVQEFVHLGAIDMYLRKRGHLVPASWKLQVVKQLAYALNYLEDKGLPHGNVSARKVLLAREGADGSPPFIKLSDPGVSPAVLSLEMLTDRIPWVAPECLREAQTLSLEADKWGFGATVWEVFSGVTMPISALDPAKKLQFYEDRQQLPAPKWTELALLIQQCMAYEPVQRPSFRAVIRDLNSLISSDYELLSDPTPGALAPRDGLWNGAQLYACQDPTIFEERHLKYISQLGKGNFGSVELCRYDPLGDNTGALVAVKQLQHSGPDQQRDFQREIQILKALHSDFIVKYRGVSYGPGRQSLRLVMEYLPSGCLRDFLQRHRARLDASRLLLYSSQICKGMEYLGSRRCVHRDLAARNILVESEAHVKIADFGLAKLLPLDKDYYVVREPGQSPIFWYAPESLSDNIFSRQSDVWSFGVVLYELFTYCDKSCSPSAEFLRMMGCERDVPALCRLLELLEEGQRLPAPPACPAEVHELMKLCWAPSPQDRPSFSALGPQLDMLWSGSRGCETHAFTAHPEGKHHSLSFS
The series is described as follows: Kinase inhibition ELISA, JAK3. The format is biochemical. Conditions: for inhibition at 10 µM: 10 μM test compound, 150 μM ATP. Here is the method:
as §3
(§4) For compounds 2a–c,q, the IC50 value (μmol L^–1) was calculated from ten concentration points (in triplicate dilution) obtained twice. The data were analyzed using GraphPad Prism software (v. 3.1).

Series [1] concerns protein kinases NPM1-ALK, ALK, EGFR[L858R][T790], cRAF[Y340D][Y341D], JAK2, and JAK3. The series can be described thus: Kinase inhibition ELISA, summary over the studied protein kinases. The format is biochemical, human. As to conditions: primary screening, 10 μM test compound. Here is the method: Study of inhibitory activity. The kinase activity was determined by enzyme-linked immunosorbent assay (ELISA) in polypropylene plates (Costar, 3363) in reaction buffer (20 mM HEPES, pH 7.5, 15 mM MgCl2, 2 mM DTT, 0.2 mM Na3VO4, 0.005% Triton X-100) for 60 min at 30 °C with vigorous stirring. The final concentration of the reaction components: 0.05 μg mL^–1 of the corresponding kinase, 5 nM Histon H3 biotinylated substrate (1–21) (Anaspec, 61702), 150 μM ATP (Sigma, A6419), 10 μM test compound, 5% DMSO. The enzymatic reaction was stopped with a buffer containing 20 mM HEPES (Sigma, H4034), pH 7.5, and 150 mM EDTA (Sigma, E5513). Further, to detect the phosphorylated substrate, the reaction mixture was transferred to pre-prepared plates (Nunc, 468667) coated with neutravidin (1 ng per well; Pierce, 31000) and treated with bovine serum albumin (BSA) to block non-specific binding sites. Incubation was carried out for 1 h at room temperature. […] The optical density of the solution was determined at λ = 450 nm using a tablet spectrophotometer (TECAN Safire). […]
as §4

Series [2] is described as follows: Solubility in DMSO (noted during NMR). The format is physicochemical. Conditions: in words; NMR sample in DMSO. Here is the method:
The signal for the carbon atom of the imino group at 166.6 ppm was detected in the spectrum of the arylimino derivative 2q. In the mass spectra of compounds 2h, 2i–n, and 2q, peaks of protonated molecular ions, consistent with the structure of these compounds, were observed.

Chain of cRAF[Y340D][Y341D] (P04049 whole entry Y340D/Y341D): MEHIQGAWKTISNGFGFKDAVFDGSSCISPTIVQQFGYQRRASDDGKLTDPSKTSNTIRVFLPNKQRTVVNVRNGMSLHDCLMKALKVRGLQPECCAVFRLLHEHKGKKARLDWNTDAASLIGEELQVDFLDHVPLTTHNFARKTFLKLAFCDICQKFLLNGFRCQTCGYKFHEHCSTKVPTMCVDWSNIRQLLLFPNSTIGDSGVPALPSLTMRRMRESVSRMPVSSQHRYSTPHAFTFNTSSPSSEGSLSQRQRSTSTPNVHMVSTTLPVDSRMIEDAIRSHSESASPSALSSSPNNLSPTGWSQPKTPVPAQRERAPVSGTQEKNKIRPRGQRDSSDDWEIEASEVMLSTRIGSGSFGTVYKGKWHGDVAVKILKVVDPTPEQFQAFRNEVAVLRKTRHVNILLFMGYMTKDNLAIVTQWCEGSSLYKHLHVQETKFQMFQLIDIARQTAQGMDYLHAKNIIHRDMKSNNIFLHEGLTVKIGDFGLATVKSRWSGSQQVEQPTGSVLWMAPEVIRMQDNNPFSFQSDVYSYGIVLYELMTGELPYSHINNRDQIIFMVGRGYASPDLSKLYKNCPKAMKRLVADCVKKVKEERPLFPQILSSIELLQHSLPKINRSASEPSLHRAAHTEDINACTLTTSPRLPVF
Chain of EGFR[L858R][T790] (P00533 669-1210 T790M/L858R limits assumed): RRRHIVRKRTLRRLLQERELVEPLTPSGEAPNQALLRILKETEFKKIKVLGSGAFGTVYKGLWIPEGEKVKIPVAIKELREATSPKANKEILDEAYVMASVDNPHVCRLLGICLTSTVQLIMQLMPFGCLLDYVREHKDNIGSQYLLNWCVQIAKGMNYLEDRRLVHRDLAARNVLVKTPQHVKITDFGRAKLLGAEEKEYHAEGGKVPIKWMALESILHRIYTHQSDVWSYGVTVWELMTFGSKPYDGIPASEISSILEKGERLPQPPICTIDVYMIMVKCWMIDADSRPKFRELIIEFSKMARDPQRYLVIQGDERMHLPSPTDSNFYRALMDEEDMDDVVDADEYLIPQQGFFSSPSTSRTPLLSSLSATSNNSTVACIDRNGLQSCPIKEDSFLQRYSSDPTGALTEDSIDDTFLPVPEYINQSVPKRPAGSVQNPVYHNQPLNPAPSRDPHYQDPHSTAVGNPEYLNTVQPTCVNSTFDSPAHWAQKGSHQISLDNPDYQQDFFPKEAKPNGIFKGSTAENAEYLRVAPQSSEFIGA
Chain of ALK (Q9UM73 19-1620): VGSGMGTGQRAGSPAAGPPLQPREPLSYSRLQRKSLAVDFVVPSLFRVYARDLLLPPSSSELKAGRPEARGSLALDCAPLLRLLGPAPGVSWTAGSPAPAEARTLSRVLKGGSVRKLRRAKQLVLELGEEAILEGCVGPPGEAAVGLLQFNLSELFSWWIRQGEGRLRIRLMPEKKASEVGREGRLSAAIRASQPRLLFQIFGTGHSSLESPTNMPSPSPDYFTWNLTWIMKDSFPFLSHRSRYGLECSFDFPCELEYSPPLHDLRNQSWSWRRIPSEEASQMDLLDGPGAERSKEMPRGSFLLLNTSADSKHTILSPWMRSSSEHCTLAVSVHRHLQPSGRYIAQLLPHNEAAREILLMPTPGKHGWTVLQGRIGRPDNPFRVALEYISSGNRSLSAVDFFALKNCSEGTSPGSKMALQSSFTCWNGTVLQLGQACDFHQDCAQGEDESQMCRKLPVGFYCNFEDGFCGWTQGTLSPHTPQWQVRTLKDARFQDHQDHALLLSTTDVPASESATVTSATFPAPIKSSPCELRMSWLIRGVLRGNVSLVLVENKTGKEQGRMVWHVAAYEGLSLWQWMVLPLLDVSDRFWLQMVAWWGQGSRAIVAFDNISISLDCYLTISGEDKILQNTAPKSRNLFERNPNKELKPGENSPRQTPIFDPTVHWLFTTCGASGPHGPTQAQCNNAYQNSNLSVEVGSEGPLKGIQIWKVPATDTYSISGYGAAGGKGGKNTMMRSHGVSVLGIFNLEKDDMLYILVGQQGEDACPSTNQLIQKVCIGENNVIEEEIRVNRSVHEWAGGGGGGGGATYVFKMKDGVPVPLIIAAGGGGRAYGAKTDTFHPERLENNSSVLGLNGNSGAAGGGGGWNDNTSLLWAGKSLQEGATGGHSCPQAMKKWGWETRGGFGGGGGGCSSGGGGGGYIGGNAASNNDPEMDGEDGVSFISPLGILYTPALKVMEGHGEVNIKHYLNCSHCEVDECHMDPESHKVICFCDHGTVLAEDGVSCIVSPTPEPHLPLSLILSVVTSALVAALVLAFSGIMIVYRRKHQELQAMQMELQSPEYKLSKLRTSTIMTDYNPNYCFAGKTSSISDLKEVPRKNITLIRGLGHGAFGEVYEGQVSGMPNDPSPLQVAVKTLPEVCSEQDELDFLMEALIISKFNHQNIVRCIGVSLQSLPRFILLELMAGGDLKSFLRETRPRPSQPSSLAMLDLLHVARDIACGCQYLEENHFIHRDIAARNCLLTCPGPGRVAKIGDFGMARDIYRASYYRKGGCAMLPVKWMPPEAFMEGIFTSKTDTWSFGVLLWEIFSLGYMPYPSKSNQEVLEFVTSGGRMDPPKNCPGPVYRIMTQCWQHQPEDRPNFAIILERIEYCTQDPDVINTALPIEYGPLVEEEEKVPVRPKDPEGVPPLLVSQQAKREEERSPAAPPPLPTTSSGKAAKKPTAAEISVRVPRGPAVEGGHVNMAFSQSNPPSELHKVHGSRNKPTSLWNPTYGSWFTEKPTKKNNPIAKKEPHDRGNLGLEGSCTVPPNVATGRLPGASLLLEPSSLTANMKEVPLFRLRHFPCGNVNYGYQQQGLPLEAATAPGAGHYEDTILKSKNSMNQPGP
T1 sequence (Q9UM73 whole entry, looked up, the tested form may be a part): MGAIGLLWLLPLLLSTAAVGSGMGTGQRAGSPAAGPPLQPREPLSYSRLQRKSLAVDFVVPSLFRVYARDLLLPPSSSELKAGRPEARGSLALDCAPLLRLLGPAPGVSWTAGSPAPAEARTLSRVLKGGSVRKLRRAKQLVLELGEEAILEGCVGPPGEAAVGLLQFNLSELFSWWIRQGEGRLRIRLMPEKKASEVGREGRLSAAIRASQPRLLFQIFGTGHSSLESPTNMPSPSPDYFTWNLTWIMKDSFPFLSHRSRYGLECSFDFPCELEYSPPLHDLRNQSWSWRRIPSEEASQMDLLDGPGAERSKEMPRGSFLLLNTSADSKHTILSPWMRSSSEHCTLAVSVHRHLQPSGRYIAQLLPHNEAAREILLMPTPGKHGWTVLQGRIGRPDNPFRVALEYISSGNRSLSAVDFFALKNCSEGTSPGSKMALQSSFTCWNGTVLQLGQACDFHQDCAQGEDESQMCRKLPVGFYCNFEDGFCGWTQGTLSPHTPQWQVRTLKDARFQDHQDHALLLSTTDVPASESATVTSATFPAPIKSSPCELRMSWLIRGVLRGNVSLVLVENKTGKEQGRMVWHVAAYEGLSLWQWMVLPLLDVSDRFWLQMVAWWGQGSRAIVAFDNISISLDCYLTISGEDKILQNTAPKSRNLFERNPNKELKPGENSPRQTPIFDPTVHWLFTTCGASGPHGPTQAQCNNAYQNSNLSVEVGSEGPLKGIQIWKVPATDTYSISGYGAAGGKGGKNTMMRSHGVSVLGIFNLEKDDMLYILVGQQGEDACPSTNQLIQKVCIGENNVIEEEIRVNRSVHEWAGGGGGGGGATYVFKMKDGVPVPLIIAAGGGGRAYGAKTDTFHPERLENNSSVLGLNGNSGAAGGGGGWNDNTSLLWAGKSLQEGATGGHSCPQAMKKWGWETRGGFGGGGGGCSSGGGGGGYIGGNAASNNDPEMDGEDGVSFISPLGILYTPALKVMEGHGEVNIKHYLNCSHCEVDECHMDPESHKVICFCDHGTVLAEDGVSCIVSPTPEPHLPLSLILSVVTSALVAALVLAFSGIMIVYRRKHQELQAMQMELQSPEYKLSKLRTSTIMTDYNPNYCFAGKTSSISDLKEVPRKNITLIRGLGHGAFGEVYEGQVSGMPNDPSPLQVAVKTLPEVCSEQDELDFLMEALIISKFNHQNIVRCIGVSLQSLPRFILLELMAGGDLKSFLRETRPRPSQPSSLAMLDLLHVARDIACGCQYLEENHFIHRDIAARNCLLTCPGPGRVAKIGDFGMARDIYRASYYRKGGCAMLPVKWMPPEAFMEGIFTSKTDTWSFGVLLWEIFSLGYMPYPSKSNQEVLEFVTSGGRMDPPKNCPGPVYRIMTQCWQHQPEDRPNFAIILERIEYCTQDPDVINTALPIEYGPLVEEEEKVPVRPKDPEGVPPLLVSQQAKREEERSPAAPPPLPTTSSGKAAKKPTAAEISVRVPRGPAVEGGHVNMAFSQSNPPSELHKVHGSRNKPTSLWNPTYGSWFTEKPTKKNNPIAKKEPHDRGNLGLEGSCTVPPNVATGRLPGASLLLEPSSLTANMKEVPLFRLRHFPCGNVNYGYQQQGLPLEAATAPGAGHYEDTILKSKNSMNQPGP

On to `COc1ccc2c(c1)-c1c(ssc1=S)C(C)(C)N2C(=O)CN1C(=O)C2CCCCC2C1=O` (stereo not shown) [2k, 2-[2-(8-Methoxy-4,4-dimethyl-1-thioxo-1,4-dihydro-5H-[1,2]dithiolo[3,4-c]quinolin-5-yl)-2-oxoethyl]hexahydro-1H-isoindole-1,3(2H)-dione], for which the melting point was 205 to 206 °C. Also, the inhibition at 10 µM against NPM1-ALK was determined as 27%. On ALK, the inhibition at 10 µM amounted to 18%. Moreover, the inhibition at 10 µM against EGFR[L858R][T790] is -2%. The inhibition at 10 µM on cRAF[Y340D][Y341D] was 41%. The inhibition at 10 µM against JAK2 was found to be 3%. Also, the inhibition at 10 µM on JAK3 stood at 26%. Besides, the “inhibitory activity against the studied protein kinases (in words)” value in series [1] was “very low activity”.

In turn, `COc1ccc2c(c1)N(C(=O)c1sc3ccccc3c1Cl)C(C)(C)c1ssc(=S)c1-2` [2l, 5-[(3-Chloro-1-benzothien-2-yl)carbonyl]-7-methoxy-4,4-dimethyl-4,5-dihydro-1H-[1,2]dithiolo[3,4-c]quinoline-1-thione] yielded a melting point of 218 to 219 °C. Further, at NPM1-ALK, the inhibition at 10 µM is 67%. Further, the inhibition at 10 µM at ALK was 75%. Besides, the inhibition at 10 µM against EGFR[L858R][T790] is 24%. At cRAF[Y340D][Y341D], the inhibition at 10 µM came out at 81%. In addition, the inhibition at 10 µM on JAK2 worked out at 53%. Further, on JAK3, the inhibition at 10 µM is 86%.

The molecule `CC1(C)c2ssc(=S)c2-c2cc3c(cc2N1C(=O)c1ccccc1F)OCCO3` [2m, 5-(2-Fluorobenzoyl)-4,4-dimethyl-4,5,8,9-tetrahydro-1H-[1,4]dioxino[2,3-g][1,2]dithiolo[3,4-c]quinoline-1-thione] had a melting point of 234 to 235 °C. In addition, the inhibition at 10 µM against NPM1-ALK turned out to be 6%. Besides, at ALK, the inhibition at 10 µM is -4%. For the same molecule, the inhibition at 10 µM against EGFR[L858R][T790] was 10%. Further, the inhibition at 10 µM against cRAF[Y340D][Y341D] worked out at 35%. Besides, on JAK2, the inhibition at 10 µM came to 1%. For the same molecule, the inhibition at 10 µM on JAK3 stood at 23%. Also, the “inhibitory activity against the studied protein kinases (in words)” value in series [1] is listed as “very low activity”.

Take `CC1(C)c2ssc(=S)c2-c2cc3c(c4c2N1C(=O)C4=O)OCCO3` [2n, 8,8-Dimethyl-11-thioxo-2,3,8,11-tetrahydro[1,4]dioxino[2,3-g][1,2]dithiolo[3,4-c]pyrrolo[3,2,1-ij]quinoline-5,6-dione]: the melting point was > 260 °C. In addition, on NPM1-ALK, the inhibition at 10 µM was 24%. For the same molecule, the inhibition at 10 µM at ALK worked out at 19%. Moreover, the inhibition at 10 µM on EGFR[L858R][T790] was found to be 5%. For the same molecule, at cRAF[Y340D][Y341D], the inhibition at 10 µM came to 13%. For the same molecule, at JAK2, the inhibition at 10 µM came to 47%. Moreover, the inhibition at 10 µM on JAK3 was 52%. The “solubility in DMSO” value in series [2] is on record as “low solubility in DMSO”.

In the case of `COc1cccc(N=c2ssc3c2-c2cccc4c2N(C(=O)C4=O)C3(C)C)c1` [2q, 10-[(3-Methoxyphenyl)imino]-7,7-dimethyl-7,10-dihydro[1,2]dithiolo[3,4-c]pyrrolo[3,2,1-ij]quinoline-4,5-dione], the melting point lay in the range of 195 to 196 °C. The inhibition at 10 µM at NPM1-ALK turned out to be 36%. Moreover, the inhibition at 10 µM against ALK came to 51%. For the same molecule, on EGFR[L858R][T790], the inhibition at 10 µM came out at 71%. Further, the inhibition at 10 µM against cRAF[Y340D][Y341D] turned out to be 92%. Further, on cRAF[Y340D][Y341D] (ten concentration points), the IC50 stood at 5340 nM. For the same molecule, the inhibition at 10 µM on JAK2 turned out to be 9%. For the same molecule, the inhibition at 10 µM at JAK3 was determined as 99%. The molecule also registered an IC50 against JAK3 (ten concentration points) of 460 nM.
